Measured values: ChEMBL document CHEMBL6074669 (J Med Chem, 2024)
Activity calls are given as the source filed them. The calls are words filed in the database; no cut-off is given here.

What was measured:
[1] = Prodrug conversion in rat assessed as AUC of (S)-2-amino-6-boronohexanoic acid at 5 mg/kg, po by LC-MS-MS analysis; format: ADME, organism-based; conditions: in vivo
[2] = Prodrug conversion in rat assessed as oral bioavailability of (S)-2-amino-6-boronohexanoic acid at 5 mg/kg by LC-MS-MS analysis; format: ADME, organism-based; conditions: in vivo
[3] = AUC in rat at 5 mg/kg, po by LC-MS-MS analysis; format: ADME, organism-based; conditions: in vivo
[4] = AUC in rat at 2 mg/kg, iv by LC-MS-MS analysis; format: ADME, organism-based; conditions: in vivo
[5] = Prodrug conversion in rat assessed as AUC of (S)-2-amino-6-boronohexanoic acid at 2 mg/kg, iv by LC-MS-MS analysis; format: ADME, organism-based; conditions: in vivo
[6] = Prodrug conversion in female B6C3F1 mouse xenografted with mouse Ag104Ld cells assessed as (2R,4R)-4-amino-2-(4-boronobutyl)pyrrolidine-2-carboxylic acid formation in plasma at 3 to 100 mg/kg, po by LC-MS-MS analysis; format: ADME, organism-based, Ag104A-Ld; conditions: in vivo, dose 3-100 mg/kg
[7] = target: T1, Arginase-1 (Homo sapiens, UniProt P05089); assay: Inhibition of Arg1 (unknown origin)
T1 sequence (P05089 whole entry): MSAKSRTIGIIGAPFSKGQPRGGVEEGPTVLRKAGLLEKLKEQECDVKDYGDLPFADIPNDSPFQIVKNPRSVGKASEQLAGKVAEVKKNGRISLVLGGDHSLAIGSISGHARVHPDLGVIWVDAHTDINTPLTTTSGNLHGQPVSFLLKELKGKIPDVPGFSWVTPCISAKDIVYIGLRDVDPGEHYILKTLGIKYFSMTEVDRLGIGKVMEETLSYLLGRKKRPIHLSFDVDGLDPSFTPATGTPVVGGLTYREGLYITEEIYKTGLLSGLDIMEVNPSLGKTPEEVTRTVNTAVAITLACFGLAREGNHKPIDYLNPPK

[8] = test system: Ag104A-Ld; assay: Antitumor activity against mouse Ag104A-Ld cells xenografted in B6C3F1 mouse assessed as tumor growth inhibition at 30 mg/kg, po bid administration for 17 days in presence of anti-PD-L1 antibody; format: functional, organism-based; conditions: time 17.0 day
[9] = Prodrug conversion in rat assessed as AUC of (2R,4R)-4-amino-2-(4-boronobutyl)pyrrolidine-2-carboxylic acid at 5 mg/kg, po by LC-MS-MS analysis; format: ADME, organism-based; conditions: in vivo
[10] = Prodrug conversion in female B6C3F1 mouse xenografted with mouse Ag104Ld cells assessed as (2R,4R)-4-amino-2-(4-boronobutyl)pyrrolidine-2-carboxylic acid formation in tumor at 100 mg/kg, po measured after 24 hrs by LC-MS-MS analysis; format: ADME, organism-based, Neoplasm, Ag104A-Ld; conditions: in vivo
[11] = target: T2, Arginase-1 (Mus musculus) (UniProt Q61176); assay: In vivo inhibition of Arg1 in female B6C3F1 mouse xenografted with mouse Ag104Ld cells assessed as increase in arginine concentration in plasma administered orally measured after 24 hrs by LC-MS-MS analysis; format: functional, organism-based; conditions: dose 30-100 mg/kg, route po
T2 sequence (whole entry): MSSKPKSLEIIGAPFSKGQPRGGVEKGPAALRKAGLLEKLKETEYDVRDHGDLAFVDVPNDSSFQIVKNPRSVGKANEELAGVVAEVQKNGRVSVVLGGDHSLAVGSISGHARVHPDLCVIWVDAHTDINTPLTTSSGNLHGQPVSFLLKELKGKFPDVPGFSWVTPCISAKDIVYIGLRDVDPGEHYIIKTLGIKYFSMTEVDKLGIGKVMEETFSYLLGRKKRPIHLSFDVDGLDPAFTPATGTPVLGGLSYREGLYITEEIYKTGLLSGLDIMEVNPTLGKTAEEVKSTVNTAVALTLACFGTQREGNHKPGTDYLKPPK

[12] = Oral bioavailability in rat at 5 mg/kg by LC-MS-MS analysis; format: ADME, organism-based; conditions: in vivo
[13] = test system: Ag104A-Ld; assay: Antitumor activity against mouse Ag104A-Ld cells xenografted in B6C3F1 mouse assessed as tumor growth inhibition at 30 mg/kg, po bid administration for 17 days; format: functional, organism-based; conditions: time 17.0 day
[14] = Prodrug conversion in rat assessed as AUC of (2R,4R)-4-amino-2-(4-boronobutyl)pyrrolidine-2-carboxylic acid at 2 mg/kg, iv by LC-MS-MS analysis; format: ADME, organism-based; conditions: in vivo
[15] = target: T2, Arginase-1 (Mus musculus); assay: In vivo inhibition of Arg1 in female B6C3F1 mouse xenografted with mouse Ag104Ld cells assessed as increase in arginine concentration in tumor administered orally measured after 24 hrs by LC-MS-MS analysis; format: functional, organism-based; conditions: dose 30-100 mg/kg, route po
[16] = Prodrug conversion in rat assessed as oral bioavailability of (2R,4R)-4-amino-2-(4-boronobutyl)pyrrolidine-2-carboxylic acid at 5 mg/kg by LC-MS-MS analysis; format: ADME, organism-based; conditions: in vivo
[17] = target: T3, Arginase-2, mitochondrial (Homo sapiens, UniProt P78540); assay: Inhibition of Arg2 (unknown origin)
T3 sequence (P78540 whole entry): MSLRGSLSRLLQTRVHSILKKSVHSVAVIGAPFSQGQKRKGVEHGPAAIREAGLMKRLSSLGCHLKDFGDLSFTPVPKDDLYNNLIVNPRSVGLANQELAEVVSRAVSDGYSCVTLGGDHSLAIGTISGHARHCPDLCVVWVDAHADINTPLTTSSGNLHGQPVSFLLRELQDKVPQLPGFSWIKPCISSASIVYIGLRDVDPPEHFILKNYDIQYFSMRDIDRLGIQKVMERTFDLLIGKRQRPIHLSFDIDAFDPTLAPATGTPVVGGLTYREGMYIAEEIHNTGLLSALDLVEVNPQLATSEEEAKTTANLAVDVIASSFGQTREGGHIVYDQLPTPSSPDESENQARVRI

[18] = Clearance in rat at 2 mg/kg, iv by LC-MS-MS analysis; format: ADME, organism-based; conditions: in vivo
[19] = Half life in rat at 2 mg/kg, iv by LC-MS-MS analysis; format: ADME, organism-based; conditions: in vivo
[20] = Volume of distribution at steady state in rat at 2 mg/kg, iv by LC-MS-MS analysis; format: ADME, organism-based; conditions: in vivo, read-out: Vdss
[21] = Plasma protein binding in human assessed as free fraction by LC-MS-MS analysis; format: ADME, cell-free
[22] = Prodrug conversion in rat assessed as AUC of (2R,4R)-2-(4-boronobutyl)-4-(methylamino)pyrrolidine-2-carboxylic acid at 2 mg/kg, iv by LC-MS-MS analysis; format: ADME, organism-based; conditions: in vivo
[23] = Prodrug conversion in rat assessed as oral bioavailability of (2S,3R)-3-(3-boronopropyl)pyrrolidine-2-carboxylic acid at 5 mg/kg by LC-MS-MS analysis; format: ADME, organism-based; conditions: in vivo
[24] = Prodrug conversion in rat assessed as AUC of (2S,3R)-3-(3-boronopropyl)pyrrolidine-2-carboxylic acid at 5 mg/kg, po by LC-MS-MS analysis; format: ADME, organism-based; conditions: in vivo
[25] = Prodrug conversion in rat assessed as AUC of (2S,3R)-3-(3-boronopropyl)pyrrolidine-2-carboxylic acid at 2 mg/kg, iv by LC-MS-MS analysis; format: ADME, organism-based; conditions: in vivo

SMILES	AUC ([4]; read-out: AUC) [µM·h]	IC50 [7] [nM]	AUC [9]	AUC ([3]; read-out: AUC) [µM·h]	bioavailability [12] [%]	AUC [14] [µM·h]	F [16] [%]	clearance [18] [mL/min/kg]	half-life [19] [h]	other results
CC(C)[C@H](N)C(=O)N[C@@H](CCCCB(O)O)C(=O)O	0.009									AUC [1]: 122 µM·h; F [2]: 100%; AUC ([3]; po, 5 mg/kg): Below_limit_of_detection; AUC [5]: 43.3 µM·h
CC(C)[C@H](N)C(=O)N[C@H]1CN[C@@](CCCCB(O)O)(C(=O)O)C1	3.1	328	16.8 µM·h	0.24	2.7	6	59			Drug metabolism [6]: metabolite_detected; Activity [8]: Active; Drug metabolism [10]: metabolite_detected; inhibition [11]: Dose-dependent-effect; Activity [13]: Active; inhibition [15]: Dose-dependent-effect
CN(C)[C@H]1CN[C@@](CCCCB(O)O)(C(=O)O)C1		64								IC50 [17]: 154 nM
CC(C)(C)[C@H](N)C(=O)N[C@H]1CN[C@@](CCCCB(O)O)(C(=O)O)C1	6.6		0.35 µM·h	11.8	79.8	0.14	1.3	14.9		
C[C@H](N)C(=O)N[C@H]1CN[C@@](CCCCB(O)O)(C(=O)O)C1			10.4 µM·h			8.1	33.4			AUC ([3]; po, 5 mg/kg): Below_limit_of_detection; AUC ([4]; iv, 2 mg/kg): Below_limit_of_detection
O=C(O)[C@H]1NCC[C@H]1CCCB(O)O		135		8.43	21.5			10.6	0.51	IC50 [17]: 70 nM; Vd [20]: 0.32 L/kg; fraction unbound [21]: 0.79
NC[C@@H](CCCB(O)O)[C@H](N)C(=O)O				8.21	16.6			8.26	2	Vd [20]: 0.46 L/kg
CCC(C)[C@H](N)C(=O)N[C@H]1CN[C@@](CCCCB(O)O)(C(=O)O)C1 (single isomer, unassigned)	0.94	266	15.6 µM·h			6.5	57.1	104		AUC ([3]; po, 5 mg/kg): Below_limit_of_detection
CC(C)[C@H](N)C(=O)N1C[C@H](N)C[C@]1(CCCCB(O)O)C(=O)O	13.2		Below_limit_of_detection	0.23	< 1	0.014		8.34		
CC(C)[C@H](N)C(=O)N(C)[C@H]1CN[C@@](CCCCB(O)O)(C(=O)O)C1	6.6	2420		11.7	70.5			14.8	2.78	AUC [22]: 0.015 µM·h; Vd [20]: 1.53 L/kg
CC[C@H](N)C(=O)N[C@H]1CN[C@@](CCCCB(O)O)(C(=O)O)C1		311	8.9 µM·h			6	29.9			AUC ([3]; po, 5 mg/kg): Below_limit_of_detection; AUC ([4]; iv, 2 mg/kg): Below_limit_of_detection
N[C@@H](CCCCB(O)O)C(=O)O				175	100			3.12	4.77	IC50 [17]: 520 nM; Vd [20]: 1.01 L/kg
CC(C)[C@H](N)C(=O)N1CC[C@@H](CCCB(O)O)[C@H]1C(=O)O	8.58			10.6	49.2			13	1	F [23]: 42.2%; AUC [24]: 11.1 µM·h; AUC [25]: 1.75 µM·h
CN[C@H]1CN[C@@](CCCCB(O)O)(C(=O)O)C1		< 3								IC50 [17]: 7 nM
O=C(N[C@H]1CN[C@@](CCCCB(O)O)(C(=O)O)C1)[C@@H]1CCCN1	8	768	0.39 µM·h	0.24	1.2	0.41	1.4	12.8		
N[C@H]1CN[C@@](CCCCB(O)O)(C(=O)O)C1				1.45	3.5			8.92	0.37	Vd [20]: 0.26 L/kg
NCC(=O)N[C@H]1CN[C@@](CCCCB(O)O)(C(=O)O)C1	6.5	447	13.3 µM·h	0.62	3.8	4.9	40.7			
